Source: ChEMBL document CHEMBL1201862, “PubChem BioAssay data set” (2004)
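Briefly, cells in 96-well plates were exposed to five compound concentrations for 48 h, and endpoints were estimated by linear interpolation. Here, GI50 denotes the concentration required for 50% inhibition of growth.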 The source made the active and inactive calls. Rule as the data show it: active = GI50 up to about 1.1 µM and inactive = higher.

Columns and labels:
Experiment in all cases: DTP human tumour cell line panel, 48 h
SNB-19 = test system: SNB-19
SW-620 = test system: SW-620
MDA-MB-231 = test system: MDA-MB-231
T47D = test system: T47D
NCI-H23 = test system: NCI-H23
SK-MEL-28 = test system: SK-MEL-28
OVCAR-4 = test system: OVCAR-4
ACHN = test system: ACHN
TK-10 = test system: TK-10
NCI-H226 = test system: NCI-H226
CAKI-1 = test system: CAKI-1
HCT-15 = test system: HCT-15
SK-OV-3 = test system: SK-OV-3
EKVX = test system: EKVX
HCT-116 = test system: HCT-116
KM12 = test system: KM12
A549 = test system: A549
UACC-62 = test system: UACC-62
COLO 205 = test system: COLO 205
MOLT-4 = test system: MOLT-4

SMILES	GI50 (SNB-19)	GI50 (SW-620)	GI50 (MDA-MB-231)	GI50 (T47D)	GI50 (NCI-H23)	GI50 (SK-MEL-28)	GI50 (OVCAR-4)	GI50 (ACHN)	GI50 (TK-10)	GI50 (NCI-H226)	GI50 (CAKI-1)	GI50 (HCT-15) [µM]	GI50 (SK-OV-3)	GI50 (EKVX)	GI50 (HCT-116)	GI50 (KM12)	GI50 (A549)	GI50 (UACC-62)	GI50 (COLO 205)	GI50 (MOLT-4)
CCCCc1ccc(NC(=N)N)cc1	40.6 µM (inactive)	44.5 µM (inactive)	28.9 µM (inactive)	31.6 µM (inactive)	40.2 µM (inactive)	58.2 µM (inactive)	25.4 µM (inactive)	36.7 µM (inactive)	22.1 µM (inactive)	23.7 µM (inactive)	28.4 µM (inactive)	33	41.5 µM (inactive)	30 µM (inactive)	24.9 µM (inactive)	18.9 µM (inactive)	41.5 µM (inactive)	37.3 µM (inactive)	19 µM (inactive)	
CC1CC(=O)Nc2ccc(/N=N/N(C)C)cc2N1C=O (configuration not stated)	> 100 µM (inactive)	> 100 µM (inactive)	> 100 µM (inactive)	> 100 µM (inactive)	> 100 µM (inactive)	> 100 µM (inactive)	> 100 µM (inactive)	> 100 µM (inactive)	> 100 µM (inactive)	> 100 µM (inactive)	> 100 µM (inactive)	> 100	> 100 µM (inactive)	> 100 µM (inactive)	> 100 µM (inactive)	> 100 µM (inactive)	> 100 µM (inactive)	> 100 µM (inactive)	> 100 µM (inactive)	> 100 µM (inactive)
Cn1c(=O)[nH]c2nccnc2c1=O	> 10 µM (inactive)	> 10 µM (inactive)	> 10 µM (inactive)	> 10 µM (inactive)	> 10 µM (inactive)	> 10 µM (inactive)	> 10 µM (inactive)	> 10 µM (inactive)	> 10 µM (inactive)	> 10 µM (inactive)	> 10 µM (inactive)	> 10	> 10 µM (inactive)	> 10 µM (inactive)	> 10 µM (inactive)	> 10 µM (inactive)	> 10 µM (inactive)	> 10 µM (inactive)	> 10 µM (inactive)	> 10 µM (inactive)
CC1=C2C(=O)c3ccccc3C(=O)[C@H]2C[C@@H](N2CCCCCC2=O)O1	21 µM (inactive)	17.3 µM (inactive)	22.5 µM (inactive)	20.8 µM (inactive)	14.9 µM (inactive)	18.7 µM (inactive)	17.2 µM (inactive)	23.4 µM (inactive)	23 µM (inactive)	30.5 µM (inactive)	16.9 µM (inactive)	20.7	27.5 µM (inactive)	23.1 µM (inactive)		16.7 µM (inactive)	20.3 µM (inactive)	19.2 µM (inactive)	17.3 µM (inactive)	14.7 µM (inactive)
CC1(C)[N+]([O-])=[N+]([O-])C1(C)O (configuration not stated)	> 100 µM (inactive)	> 100 µM (inactive)	> 100 µM (inactive)	> 100 µM (inactive)	> 100 µM (inactive)	> 100 µM (inactive)	> 100 µM (inactive)		> 100 µM (inactive)	> 100 µM (inactive)	> 100 µM (inactive)	> 100	> 100 µM (inactive)	> 100 µM (inactive)	> 100 µM (inactive)	> 100 µM (inactive)	> 100 µM (inactive)	> 100 µM (inactive)	> 100 µM (inactive)	> 100 µM (inactive)
O=S(=O)(c1ccccc1)c1ccc(/N=N/O)nc1	> 100 µM (inactive)	> 100 µM (inactive)	> 100 µM (inactive)	> 100 µM (inactive)	> 100 µM (inactive)	> 100 µM (inactive)	> 100 µM (inactive)	> 100 µM (inactive)	> 100 µM (inactive)	> 100 µM (inactive)	> 100 µM (inactive)	> 100	> 100 µM (inactive)	> 100 µM (inactive)	> 100 µM (inactive)	> 100 µM (inactive)	> 100 µM (inactive)	> 100 µM (inactive)	> 100 µM (inactive)	22.4 µM (inactive)
C=C1CCCC(C)(C)[C@H]1C/C=C1\CCOC1=O	16.8 µM (inactive)	18.7 µM (inactive)	17.7 µM (inactive)	54.2 µM (inactive)	14.2 µM (inactive)	16.1 µM (inactive)	11 µM (inactive)	15.7 µM (inactive)	19.5 µM (inactive)	9.89 µM (inactive)	16.6 µM (inactive)	14.5	10.5 µM (inactive)	15.9 µM (inactive)	12.6 µM (inactive)	17.9 µM (inactive)	13.7 µM (inactive)	29.4 µM (inactive)	19.3 µM (inactive)	10.6 µM (inactive)
